# Results as given in PMC4854315, “Discovery of a novel allosteric inhibitor-binding site in ERK5: comparison with the canonical kinase hinge ATP-binding site” (Acta Crystallographica. Section D, Structural Biology, 2016).
# Legend:
# Assay in all cases: Z'-LYTE kinase panel
# Assay type in all cases: biochemical
# CAMK2A (CaMKII alpha) = molecular target: T1, CAMK2A (CaMKII alpha) (Homo sapiens, UniProt Q9UQM7)
# T1 construct: purchased ThermoFisher (SelectScreen, Z'-LYTE)
# How it was run: (§1)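 Screened at 10 µM against a 225-kinase panel; the Z′-LYTE standard assay gave percentage inhibition values.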
# EPHA5 = molecular target: T2, EPHA5 (Homo sapiens, UniProt P54756)
# T2 construct: purchased ThermoFisher (SelectScreen, Z'-LYTE)
# How it was run: as §1
# JAK3 = molecular target: T3, JAK3 (Homo sapiens, UniProt P52333)
# T3 construct: purchased ThermoFisher (SelectScreen, Z'-LYTE)
# T3 sequence (P52333 1-1124): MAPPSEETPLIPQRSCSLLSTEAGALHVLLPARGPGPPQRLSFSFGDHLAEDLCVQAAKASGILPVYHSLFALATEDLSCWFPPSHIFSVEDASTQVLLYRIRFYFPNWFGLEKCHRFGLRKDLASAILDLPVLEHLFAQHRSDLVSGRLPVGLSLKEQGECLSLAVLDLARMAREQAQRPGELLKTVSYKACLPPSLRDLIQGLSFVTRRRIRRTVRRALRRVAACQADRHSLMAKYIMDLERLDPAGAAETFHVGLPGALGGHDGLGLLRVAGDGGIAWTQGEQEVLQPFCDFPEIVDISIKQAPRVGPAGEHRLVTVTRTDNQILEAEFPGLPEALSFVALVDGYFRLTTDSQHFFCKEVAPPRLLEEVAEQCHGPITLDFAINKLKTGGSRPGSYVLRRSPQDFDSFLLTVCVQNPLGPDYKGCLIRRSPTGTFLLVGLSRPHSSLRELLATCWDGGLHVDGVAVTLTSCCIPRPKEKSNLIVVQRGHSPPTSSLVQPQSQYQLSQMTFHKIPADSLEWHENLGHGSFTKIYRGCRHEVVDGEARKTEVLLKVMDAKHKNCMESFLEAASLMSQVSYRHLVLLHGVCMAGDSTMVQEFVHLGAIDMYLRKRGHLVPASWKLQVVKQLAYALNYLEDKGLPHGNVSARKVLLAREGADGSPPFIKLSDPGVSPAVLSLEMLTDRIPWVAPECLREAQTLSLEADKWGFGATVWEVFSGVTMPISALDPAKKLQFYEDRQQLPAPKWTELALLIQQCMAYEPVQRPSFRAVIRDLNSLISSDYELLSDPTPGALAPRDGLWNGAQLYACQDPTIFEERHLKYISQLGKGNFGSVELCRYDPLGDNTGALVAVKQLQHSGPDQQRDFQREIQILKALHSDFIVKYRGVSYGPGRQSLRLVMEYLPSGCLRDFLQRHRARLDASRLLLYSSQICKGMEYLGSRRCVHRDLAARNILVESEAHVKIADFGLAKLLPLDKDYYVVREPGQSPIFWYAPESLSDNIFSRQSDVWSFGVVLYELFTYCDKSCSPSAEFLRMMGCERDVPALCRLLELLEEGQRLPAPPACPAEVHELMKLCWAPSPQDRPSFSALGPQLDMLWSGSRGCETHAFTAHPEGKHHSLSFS
# How it was run: as §1
# MAP3K8 (COT) = molecular target: T4, MAP3K8 (COT) (Homo sapiens, UniProt P41279); settings: 10 µM compound; ATP 100
# T4 construct: purchased ThermoFisher (SelectScreen, Z'-LYTE)
# How it was run: as §1
# MAP4K4 (HGK) = molecular target: T5, MAP4K4 (HGK) (Homo sapiens, UniProt O95819)
# T5 construct: purchased ThermoFisher (SelectScreen, Z'-LYTE)
# How it was run: as §1
# MAP4K5 (KHS1) = molecular target: T6, MAP4K5 (KHS1) (Homo sapiens, UniProt Q9Y4K4)
# T6 construct: purchased ThermoFisher (SelectScreen, Z'-LYTE)
# How it was run: as §1
# MKNK1 (MNK1) = molecular target: T7, MKNK1 (MNK1) (Homo sapiens, UniProt Q9BUB5)
# T7 construct: purchased ThermoFisher (SelectScreen, Z'-LYTE)
# How it was run: as §1
# NEK7 = molecular target: T8, NEK7 (Homo sapiens, UniProt Q8TDX7)
# T8 construct: purchased ThermoFisher (SelectScreen, Z'-LYTE)
# How it was run: as §1
# PAK2 (PAK65) = molecular target: T9, PAK2 (PAK65) (Homo sapiens, UniProt Q13177)
# T9 construct: purchased ThermoFisher (SelectScreen, Z'-LYTE)
# How it was run: as §1
# PRKCD (PKC delta) = molecular target: T10, PRKCD (PKC delta) (Homo sapiens, UniProt Q05655)
# T10 construct: purchased ThermoFisher (SelectScreen, Z'-LYTE)
# How it was run: as §1
# PRKCQ (PKC theta) = molecular target: T11, PRKCQ (PKC theta) (Homo sapiens, UniProt Q04759)
# T11 construct: purchased ThermoFisher (SelectScreen, Z'-LYTE)
# How it was run: as §1
# PRKD1 (PKC mu) = molecular target: T12, PRKD1 (PKC mu) (Homo sapiens, UniProt Q15139)
# T12 construct: purchased ThermoFisher (SelectScreen, Z'-LYTE)
# T12 sequence (Q15139 1-912): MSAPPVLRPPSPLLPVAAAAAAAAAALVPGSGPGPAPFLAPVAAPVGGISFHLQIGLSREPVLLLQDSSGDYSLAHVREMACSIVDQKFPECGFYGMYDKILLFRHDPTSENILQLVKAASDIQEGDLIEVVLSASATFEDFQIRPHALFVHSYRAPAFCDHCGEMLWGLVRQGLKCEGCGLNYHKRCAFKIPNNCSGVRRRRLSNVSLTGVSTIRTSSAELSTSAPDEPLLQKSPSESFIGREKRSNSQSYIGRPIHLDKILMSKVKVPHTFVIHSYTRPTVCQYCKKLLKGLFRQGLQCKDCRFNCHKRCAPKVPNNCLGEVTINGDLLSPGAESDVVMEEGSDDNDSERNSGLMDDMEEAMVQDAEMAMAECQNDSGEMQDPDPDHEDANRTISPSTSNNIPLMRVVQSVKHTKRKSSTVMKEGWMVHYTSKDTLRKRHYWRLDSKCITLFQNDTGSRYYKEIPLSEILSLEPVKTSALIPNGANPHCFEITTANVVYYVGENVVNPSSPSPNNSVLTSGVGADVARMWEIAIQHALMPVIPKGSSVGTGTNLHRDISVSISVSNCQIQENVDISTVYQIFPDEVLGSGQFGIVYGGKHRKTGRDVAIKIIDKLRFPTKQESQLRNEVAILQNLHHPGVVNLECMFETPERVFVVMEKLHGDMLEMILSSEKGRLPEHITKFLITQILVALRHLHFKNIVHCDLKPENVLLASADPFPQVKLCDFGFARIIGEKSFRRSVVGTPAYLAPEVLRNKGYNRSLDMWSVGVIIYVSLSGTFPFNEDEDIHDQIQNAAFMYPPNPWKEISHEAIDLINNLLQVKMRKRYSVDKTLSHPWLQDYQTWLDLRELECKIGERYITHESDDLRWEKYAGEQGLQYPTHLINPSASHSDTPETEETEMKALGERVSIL
# How it was run: as §1
# T10 sequence (Q05655 whole entry): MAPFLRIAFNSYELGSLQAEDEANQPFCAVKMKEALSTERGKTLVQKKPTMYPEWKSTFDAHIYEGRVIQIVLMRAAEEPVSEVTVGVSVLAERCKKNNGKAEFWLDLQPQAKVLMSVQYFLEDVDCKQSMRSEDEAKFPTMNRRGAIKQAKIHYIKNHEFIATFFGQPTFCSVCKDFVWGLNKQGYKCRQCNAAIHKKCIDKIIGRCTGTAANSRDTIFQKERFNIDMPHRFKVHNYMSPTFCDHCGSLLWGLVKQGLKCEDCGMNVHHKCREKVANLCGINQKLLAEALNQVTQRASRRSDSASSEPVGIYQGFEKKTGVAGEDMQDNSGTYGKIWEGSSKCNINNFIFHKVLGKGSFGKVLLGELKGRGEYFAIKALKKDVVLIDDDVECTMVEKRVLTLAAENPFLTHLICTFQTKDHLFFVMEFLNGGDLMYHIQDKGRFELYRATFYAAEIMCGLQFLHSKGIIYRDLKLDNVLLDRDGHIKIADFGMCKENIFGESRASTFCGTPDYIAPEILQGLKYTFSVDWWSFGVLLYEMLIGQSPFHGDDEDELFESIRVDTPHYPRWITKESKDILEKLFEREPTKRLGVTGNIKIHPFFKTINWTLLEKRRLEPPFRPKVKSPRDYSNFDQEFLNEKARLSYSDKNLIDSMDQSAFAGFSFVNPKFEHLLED
# T8 sequence (Q8TDX7 whole entry): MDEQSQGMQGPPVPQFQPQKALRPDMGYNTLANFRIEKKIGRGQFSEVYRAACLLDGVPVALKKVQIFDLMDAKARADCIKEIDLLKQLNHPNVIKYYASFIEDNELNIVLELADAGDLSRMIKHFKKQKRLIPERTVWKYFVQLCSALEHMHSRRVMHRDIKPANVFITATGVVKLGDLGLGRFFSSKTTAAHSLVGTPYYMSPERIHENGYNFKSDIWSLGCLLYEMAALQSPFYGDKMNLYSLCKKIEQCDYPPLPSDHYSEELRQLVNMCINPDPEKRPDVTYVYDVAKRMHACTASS
# T9 sequence (Q13177 whole entry): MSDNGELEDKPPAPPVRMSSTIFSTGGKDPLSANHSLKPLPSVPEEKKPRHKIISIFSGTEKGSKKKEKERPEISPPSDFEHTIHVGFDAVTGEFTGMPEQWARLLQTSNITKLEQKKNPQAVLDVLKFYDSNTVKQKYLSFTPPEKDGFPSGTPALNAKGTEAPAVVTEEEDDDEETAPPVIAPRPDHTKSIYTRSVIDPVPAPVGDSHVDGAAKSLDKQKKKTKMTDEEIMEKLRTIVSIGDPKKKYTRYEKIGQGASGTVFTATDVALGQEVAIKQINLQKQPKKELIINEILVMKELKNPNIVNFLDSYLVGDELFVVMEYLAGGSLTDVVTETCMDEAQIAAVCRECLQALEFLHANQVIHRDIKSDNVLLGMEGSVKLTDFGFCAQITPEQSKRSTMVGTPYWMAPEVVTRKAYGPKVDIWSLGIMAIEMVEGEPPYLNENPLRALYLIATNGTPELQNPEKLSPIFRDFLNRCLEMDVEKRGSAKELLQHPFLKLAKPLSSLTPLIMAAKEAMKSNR
# T11 sequence (Q04759 whole entry): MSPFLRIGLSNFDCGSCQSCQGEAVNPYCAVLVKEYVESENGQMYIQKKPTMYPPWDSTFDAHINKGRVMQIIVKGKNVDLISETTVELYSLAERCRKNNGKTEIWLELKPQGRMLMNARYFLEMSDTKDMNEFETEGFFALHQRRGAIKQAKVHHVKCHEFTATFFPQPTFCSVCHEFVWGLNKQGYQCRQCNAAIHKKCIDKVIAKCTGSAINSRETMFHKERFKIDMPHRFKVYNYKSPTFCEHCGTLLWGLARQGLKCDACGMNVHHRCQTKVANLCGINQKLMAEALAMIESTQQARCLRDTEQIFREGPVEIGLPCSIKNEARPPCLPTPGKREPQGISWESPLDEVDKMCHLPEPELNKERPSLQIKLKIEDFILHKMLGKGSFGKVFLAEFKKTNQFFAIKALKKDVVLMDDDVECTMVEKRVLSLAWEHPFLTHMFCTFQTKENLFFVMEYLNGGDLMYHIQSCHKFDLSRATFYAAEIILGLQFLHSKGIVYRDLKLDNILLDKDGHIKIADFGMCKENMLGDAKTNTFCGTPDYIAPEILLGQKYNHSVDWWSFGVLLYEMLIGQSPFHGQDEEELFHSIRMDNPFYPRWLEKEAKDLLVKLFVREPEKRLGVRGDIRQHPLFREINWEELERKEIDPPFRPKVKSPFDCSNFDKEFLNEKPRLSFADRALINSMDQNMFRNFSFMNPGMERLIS
# T6 sequence (Q9Y4K4 whole entry): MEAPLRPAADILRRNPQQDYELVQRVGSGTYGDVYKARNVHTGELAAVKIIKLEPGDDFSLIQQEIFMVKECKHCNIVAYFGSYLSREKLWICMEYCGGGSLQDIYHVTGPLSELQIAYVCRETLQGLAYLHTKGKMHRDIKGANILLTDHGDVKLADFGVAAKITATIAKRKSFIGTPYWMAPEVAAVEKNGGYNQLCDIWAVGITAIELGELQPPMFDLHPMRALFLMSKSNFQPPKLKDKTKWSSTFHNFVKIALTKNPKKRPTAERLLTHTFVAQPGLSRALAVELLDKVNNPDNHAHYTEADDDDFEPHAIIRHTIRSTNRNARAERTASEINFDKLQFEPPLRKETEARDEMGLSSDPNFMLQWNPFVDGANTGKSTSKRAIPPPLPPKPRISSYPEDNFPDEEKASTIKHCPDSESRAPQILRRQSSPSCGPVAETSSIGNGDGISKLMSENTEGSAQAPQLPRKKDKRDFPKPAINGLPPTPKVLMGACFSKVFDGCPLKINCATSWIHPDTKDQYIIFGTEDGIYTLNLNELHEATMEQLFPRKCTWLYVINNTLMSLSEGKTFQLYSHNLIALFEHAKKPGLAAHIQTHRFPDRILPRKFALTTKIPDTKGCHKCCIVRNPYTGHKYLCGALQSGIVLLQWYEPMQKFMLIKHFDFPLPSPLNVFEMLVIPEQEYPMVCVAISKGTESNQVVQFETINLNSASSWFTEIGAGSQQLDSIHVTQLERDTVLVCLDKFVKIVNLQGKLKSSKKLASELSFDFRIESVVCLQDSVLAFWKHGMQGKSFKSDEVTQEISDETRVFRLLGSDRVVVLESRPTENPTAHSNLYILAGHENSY
# T4 sequence (P41279 whole entry): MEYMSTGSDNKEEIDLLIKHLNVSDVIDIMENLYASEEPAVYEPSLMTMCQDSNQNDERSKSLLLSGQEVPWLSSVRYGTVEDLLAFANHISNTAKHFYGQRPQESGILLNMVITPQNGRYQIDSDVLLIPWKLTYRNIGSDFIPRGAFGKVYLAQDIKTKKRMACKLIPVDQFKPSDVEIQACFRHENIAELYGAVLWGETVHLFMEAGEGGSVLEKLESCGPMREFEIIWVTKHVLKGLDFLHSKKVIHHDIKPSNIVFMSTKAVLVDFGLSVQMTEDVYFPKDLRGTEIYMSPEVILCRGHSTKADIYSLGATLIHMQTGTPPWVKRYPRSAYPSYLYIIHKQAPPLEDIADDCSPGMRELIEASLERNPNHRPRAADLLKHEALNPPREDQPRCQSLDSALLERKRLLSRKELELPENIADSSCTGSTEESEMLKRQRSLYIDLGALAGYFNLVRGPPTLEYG
# T2 sequence (P54756 25-1037): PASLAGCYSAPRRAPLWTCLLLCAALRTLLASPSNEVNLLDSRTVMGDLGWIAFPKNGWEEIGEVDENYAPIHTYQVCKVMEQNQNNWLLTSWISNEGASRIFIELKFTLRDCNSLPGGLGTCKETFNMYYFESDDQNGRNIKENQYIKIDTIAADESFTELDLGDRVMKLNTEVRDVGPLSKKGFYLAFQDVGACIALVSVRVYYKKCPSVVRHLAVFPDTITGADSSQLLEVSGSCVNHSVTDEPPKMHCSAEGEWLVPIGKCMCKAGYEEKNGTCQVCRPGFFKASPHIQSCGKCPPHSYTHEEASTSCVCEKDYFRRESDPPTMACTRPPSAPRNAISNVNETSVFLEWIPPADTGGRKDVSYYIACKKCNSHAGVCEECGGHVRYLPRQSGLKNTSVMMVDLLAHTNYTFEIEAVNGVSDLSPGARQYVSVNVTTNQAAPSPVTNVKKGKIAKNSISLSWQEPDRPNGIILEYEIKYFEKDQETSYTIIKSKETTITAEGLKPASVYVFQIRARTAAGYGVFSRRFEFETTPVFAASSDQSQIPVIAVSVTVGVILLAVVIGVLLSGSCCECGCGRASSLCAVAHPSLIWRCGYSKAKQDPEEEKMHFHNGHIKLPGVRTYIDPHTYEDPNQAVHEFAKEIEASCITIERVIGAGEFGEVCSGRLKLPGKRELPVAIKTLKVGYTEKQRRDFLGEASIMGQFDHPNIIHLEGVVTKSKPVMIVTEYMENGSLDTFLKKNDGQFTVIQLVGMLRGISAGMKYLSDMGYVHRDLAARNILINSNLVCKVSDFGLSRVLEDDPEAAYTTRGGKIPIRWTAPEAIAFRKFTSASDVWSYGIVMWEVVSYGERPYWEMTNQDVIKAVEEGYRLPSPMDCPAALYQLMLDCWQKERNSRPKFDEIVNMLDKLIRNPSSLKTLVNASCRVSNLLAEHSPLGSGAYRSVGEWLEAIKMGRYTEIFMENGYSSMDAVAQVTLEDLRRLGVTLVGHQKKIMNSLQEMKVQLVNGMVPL
# T7 sequence (Q9BUB5 whole entry): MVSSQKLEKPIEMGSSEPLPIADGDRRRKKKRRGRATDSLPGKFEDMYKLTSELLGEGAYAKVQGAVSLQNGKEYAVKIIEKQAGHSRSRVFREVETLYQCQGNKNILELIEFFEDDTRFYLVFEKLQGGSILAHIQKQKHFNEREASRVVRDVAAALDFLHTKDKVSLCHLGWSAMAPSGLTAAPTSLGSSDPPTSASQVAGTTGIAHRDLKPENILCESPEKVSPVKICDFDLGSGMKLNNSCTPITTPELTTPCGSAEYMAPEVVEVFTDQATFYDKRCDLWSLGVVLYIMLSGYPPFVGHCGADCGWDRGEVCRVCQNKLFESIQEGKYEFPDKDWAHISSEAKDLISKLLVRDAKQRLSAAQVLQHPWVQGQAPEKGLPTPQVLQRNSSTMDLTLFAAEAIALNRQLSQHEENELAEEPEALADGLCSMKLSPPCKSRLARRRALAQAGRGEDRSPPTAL
Compound,inhibition at 10 µM (CAMK2A (CaMKII alpha)) [%],inhibition at 10 µM (EPHA5) [%],inhibition at 10 µM (JAK3) [%],inhibition at 10 µM (MAP3K8 (COT)) [%],inhibition at 10 µM (MAP4K4 (HGK)) [%],inhibition at 10 µM (MAP4K5 (KHS1)) [%],inhibition at 10 µM (MKNK1 (MNK1)) [%],inhibition at 10 µM (NEK7) [%],inhibition at 10 µM (PAK2 (PAK65)) [%],inhibition at 10 µM (PRKCD (PKC delta)) [%],inhibition at 10 µM (PRKCQ (PKC theta)) [%],inhibition at 10 µM (PRKD1 (PKC mu)) [%],other results
"XMD8-92 [Compound 2, reference compound]",–,–,–,–,–,–,–,–,–,–,–,–,"CAMK2A (CaMKII alpha) % Inhibition (CAMK2A (CaMKII alpha); 10 µM compound, ATP Km app): 59%; EPHA5 % Inhibition (EPHA5; 10 µM compound, ATP Km app): 21%; JAK3 % Inhibition (JAK3; 10 µM compound, ATP Km app): 80%; MAP3K8 (COT) % Inhibition (MAP3K8 (COT)): 3.36%; MAP4K4 (HGK) % Inhibition (MAP4K4 (HGK); 10 µM compound, ATP Km app): 84%; MAP4K5 (KHS1) % Inhibition (MAP4K5 (KHS1); 10 µM compound, ATP Km app): 85%; MKNK1 (MNK1) % Inhibition (MKNK1 (MNK1); 10 µM compound, ATP Km app): 3.65%; NEK7 % Inhibition (NEK7; 10 µM compound, ATP Km app): 11%; PAK2 (PAK65) % Inhibition (PAK2 (PAK65); 10 µM compound, ATP Km app): 12%; PRKCD (PKC delta) % Inhibition (PRKCD (PKC delta); 10 µM compound, ATP Km app): -3.55%; PRKCQ (PKC theta) % Inhibition (PRKCQ (PKC theta); 10 µM compound, ATP Km app): 52%; PRKD1 (PKC mu) % Inhibition (PRKD1 (PKC mu); 10 µM compound, ATP Km app): 17%"
Cc1ncc(-c2nc(Nc3ccc(C(=O)NCCN4CCCCC4)cc3)ncc2F)n1C(C)C [Compound 3],89,71,88,89,84,97,68,10,54,97,80,93,–
Cc1cc(Nc2nc(N)nn2C(=O)NC(C)C)ccc1Cl [Compound 5],-10,6.49,45,-2.72,-6,65,7,-0.441,-1.24,1.15,-8,15,–
